# Measurements: patent publication US8703768B2, “Nitrogen containing heteroaryl compounds” (Hoffmann-La Roche Inc., priority 2010, dated 2014)
# pIC50: −log10 of the molar value.
# Molecular target: human PDE10A (Homo sapiens (Human), UniProt Q9Y233)
# Experiment: human PDE10A full length Scintillation Proximity Assay (SPA)
# Assay type: biochemical
# Details: 50 nM cGMP and 50 nM [3H]-cGMP, 20 minutes at room temperature; read-out: PDE10A inhibition IC50
# Method in brief: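 Full-length enzyme incubated with compounds; reaction started with cGMP plus [^3H]-cGMP substrate and run 20 min at room temperature. Stopped with yttrium silicate SPA beads in 18 mM zinc sulphate, 1 h shaking, then scintillation counting; background from enzyme-free wells.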
# human PDE10A, sequence (Q9Y233 other isoform, or with tags, fused parts or gaps): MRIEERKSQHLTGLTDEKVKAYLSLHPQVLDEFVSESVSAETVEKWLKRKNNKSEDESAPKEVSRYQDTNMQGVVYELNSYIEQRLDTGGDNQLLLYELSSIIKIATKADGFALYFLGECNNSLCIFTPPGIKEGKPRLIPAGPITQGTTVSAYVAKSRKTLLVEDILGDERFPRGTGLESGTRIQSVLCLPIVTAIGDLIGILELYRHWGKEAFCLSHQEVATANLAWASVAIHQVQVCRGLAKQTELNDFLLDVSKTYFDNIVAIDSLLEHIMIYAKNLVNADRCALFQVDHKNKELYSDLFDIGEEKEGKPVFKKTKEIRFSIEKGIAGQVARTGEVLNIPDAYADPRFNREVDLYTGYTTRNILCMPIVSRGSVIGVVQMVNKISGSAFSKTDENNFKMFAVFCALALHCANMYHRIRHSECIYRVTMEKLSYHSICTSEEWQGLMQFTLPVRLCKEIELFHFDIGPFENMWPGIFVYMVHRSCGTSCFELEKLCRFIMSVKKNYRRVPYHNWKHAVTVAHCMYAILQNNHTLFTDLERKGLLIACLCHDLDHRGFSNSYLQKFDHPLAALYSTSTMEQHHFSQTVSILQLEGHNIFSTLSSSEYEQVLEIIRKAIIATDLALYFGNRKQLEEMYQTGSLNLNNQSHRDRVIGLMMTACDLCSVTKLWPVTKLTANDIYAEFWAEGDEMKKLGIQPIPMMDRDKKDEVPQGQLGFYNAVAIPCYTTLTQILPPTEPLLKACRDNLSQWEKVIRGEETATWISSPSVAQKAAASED
row,SMILES,pIC50
1,"CN(CC(F)(F)F)C(=O)c1c(NC(=O)c2nc(C3CC3)cnc2Nc2cncnc2)cnn1C [Example 237, 6-Cyclopropyl-3-(pyrimidin-5-ylamino)-pyrazine-2-carboxylic acid {1-methyl-5-[methyl-(2,2,2-trifluoro-ethyl)-carbamoyl]-1H-pyrazol-4-yl}-amide]",7.03
2,"CN(C(=O)c1c(NC(=O)c2nc(C3CC3)cnc2Nc2cncnc2)cnn1C)C1COC1 [Example 240, 6-Cyclopropyl-3-(pyrimidin-5-ylamino)-pyrazine-2-carboxylic acid [1-methyl-5-(methyl-oxetan-3-yl-carbamoyl)-1H-pyrazol-4-yl]-amide]",6.72
3,"CN1CCC(NC(=O)c2c(NC(=O)c3nc(C4CC4)cnc3Nc3cncnc3)cnn2C)CC1 [Example 242, 6-Cyclopropyl-3-(pyrimidin-5-ylamino)-pyrazine-2-carboxylic acid [1-methyl-5-(1-methyl-piperidin-4-ylcarbamoyl)-1H-pyrazol-4-yl]-amide]",7.16
4,"CNC(=O)c1c(NC(=O)c2nc(C3CC3)cnc2Nc2cncnc2)cnn1CC1CCCO1 (stereo not shown) [Example 243, 6-Cyclopropyl-3-(pyrimidin-5-ylamino)-pyrazine-2-carboxylic acid [5-methylcarbamoyl-1-(tetrahydro-furan-2-ylmethyl)-1H-pyrazol-4-yl]-amide]",8.85
5,"CC(C)(O)CNC(=O)c1c(NC(=O)c2nc(C3CC3)cnc2Nc2cncnc2)cnn1CC1CCCO1 (stereo not shown) [Example 244, 6-Cyclopropyl-3-(pyrimidin-5-ylamino)-pyrazine-2-carboxylic acid [5-(2-hydroxy-2-methyl-propylcarbamoyl)-1-(tetrahydro-furan-2-ylmethyl)-1H-pyrazol-4-yl]-amide]",9.70
6,"CNC(=O)c1c(NC(=O)c2nc(C3CC3)cnc2Nc2cncnc2)cnn1C1CCOC1 (stereo not shown) [Example 250, 6-Cyclopropyl-3-(pyrimidin-5-ylamino)-pyrazine-2-carboxylic acid [5-methylcarbamoyl-1-(tetrahydro-furan-3-yl)-1H-pyrazol-4-yl]-amide]",7.80
7,"Cn1ncc(NC(=O)c2nc(C3CC3)cnc2Nc2cncnc2)c1C(=O)NC1CCNC1 (stereo not shown) [Example 251, 6-Cyclopropyl-3-(pyrimidin-5-ylamino)-pyrazine-2-carboxylic acid [1-methyl-5-(pyrrolidin-3-ylcarbamoyl)-1H-pyrazol-4-yl]-amide]",6.86
8,"CC1CCCN1C(=O)c1ncccc1NC(=O)c1nc(C2CC2)cnc1Nc1cncnc1 (stereo not shown) [Example 252, 6-Cyclopropyl-3-(pyrimidin-5-ylamino)-pyrazine-2-carboxylic acid [2-(2-methyl-pyrrolidine-1-carbonyl)-pyridin-3-yl]-amide]",8.24
9,"CNC(=O)c1cc(Cl)ncc1NC(=O)c1nc(C2CC2)cnc1Nc1cncnc1 [Example 259, 6-Cyclopropyl-3-(pyrimidin-5-ylamino)-pyrazine-2-carboxylic acid (6-chloro-4-methylcarbamoyl-pyridin-3-yl)-amide]",8.74
10,"CNC(=O)c1c(NC(=O)c2nc([C@@H]3CCOC3)cnc2Nc2cncnc2)cnn1C [Example 267, 3-(Pyrimidin-5-ylamino)-6-(S)-tetrahydro-furan-3-yl-pyrazine-2-carboxylic acid (1-methyl-5-methylcarbamoyl-1H-pyrazol-4-yl)-amide]",8.15
11,"Cc1ccc(NC(=O)c2nc(C3CC3)cnc2Nc2cncnc2)c(C(=O)N(C)C)n1 [Example 268, 6-Cyclopropyl-3-(pyrimidin-5-ylamino)-pyrazine-2-carboxylic acid (2-dimethylcarbamoyl-6-methyl-pyridin-3-yl)-amide]",7.83
12,"CCN(CCO)C(=O)c1ncccc1NC(=O)c1nc(C2CC2)cnc1Nc1cncnc1 [Example 270, 6-Cyclopropyl-3-(pyrimidin-5-ylamino)-pyrazine-2-carboxylic acid {2-[ethyl-(2-hydroxy-ethyl)-carbamoyl]-pyridin-3-yl}-amide]",7.27
13,"O=C(NCCO)c1ncccc1NC(=O)c1nc(C2CC2)cnc1Nc1cncnc1 [Example 271, 6-Cyclopropyl-3-(pyrimidin-5-ylamino)-pyrazine-2-carboxylic acid [2-(2-hydroxy-ethylcarbamoyl)-pyridin-3-yl]-amide]",9.40
14,"O=C(Nc1ccc(C2CC2)nc1C(=O)N1CCC1)c1nc(C2CC2)cnc1Nc1cncnc1 [Example 272, 6-Cyclopropyl-3-(pyrimidin-5-ylamino)-pyrazine-2-carboxylic acid [2-(azetidine-1-carbonyl)-6-cyclopropyl-pyridin-3-yl]-amide]",8.07

# The remaining compounds from weak to strong by pIC50, led by results:
row,pIC50,SMILES
1,6.54,"CN1CCC(N(C)C(=O)c2c(NC(=O)c3nc(C4CC4)cnc3Nc3cncnc3)cnn2C)C1 (stereo not shown) [Example 247, 6-Cyclopropyl-3-(pyrimidin-5-ylamino)-pyrazine-2-carboxylic acid {1-methyl-5-[methyl-(1-methyl-pyrrolidin-3-yl)-carbamoyl]-1H-pyrazol-4-yl}-amide]"
2,6.75,"CNC(=O)c1c(NC(=O)c2nc(OC)cnc2Nc2cncnc2)cnn1C [Example 258, 6-Methoxy-3-(pyrimidin-5-ylamino)-pyrazine-2-carboxylic acid (1-methyl-5-methylcarbamoyl-1H-pyrazol-4-yl)-amide]"
3,7.17,"CN(CC1CCCO1)C(=O)c1c(NC(=O)c2nc(C3CC3)cnc2Nc2cncnc2)cnn1C (stereo not shown) [Example 257, 6-Cyclopropyl-3-(pyrimidin-5-ylamino)-pyrazine-2-carboxylic acid {1-methyl-5-[methyl-(tetrahydro-furan-2-ylmethyl)-carbamoyl]-1H-pyrazol-4-yl}-amide]"
4,7.27,"CNC(=O)c1c(NC(=O)c2nc(C3CC3)cnc2Nc2cncnc2)ccc(C)c1C [Example 263, 6-Cyclopropyl-3-(pyrimidin-5-ylamino)-pyrazine-2-carboxylic acid (3,4-dimethyl-2-methylcarbamoyl-phenyl)-amide]"
5,7.28,"CN(C(=O)c1c(NC(=O)c2nc(C3CC3)cnc2Nc2cncnc2)cnn1C)C1CC1 [Example 238, 6-Cyclopropyl-3-(pyrimidin-5-ylamino)-pyrazine-2-carboxylic acid [5-(cyclopropyl-methyl-carbamoyl)-1-methyl-1H-pyrazol-4-yl]-amide]"
6,7.32,"CC1CCCN1C(=O)c1c(NC(=O)c2nc(C3CC3)cnc2Nc2cncnc2)cnn1C (stereo not shown) [Example 239, 6-Cyclopropyl-3-(pyrimidin-5-ylamino)-pyrazine-2-carboxylic acid [1-methyl-5-(2-methyl-pyrrolidine-1-carbonyl)-1H-pyrazol-4-yl]-amide]"
7,7.44,"CN(CCF)C(=O)c1c(NC(=O)c2nc(C3CC3)cnc2Nc2cncnc2)cnn1C [Example 245, 6-Cyclopropyl-3-(pyrimidin-5-ylamino)-pyrazine-2-carboxylic acid {5-[(2-fluoro-ethyl)-methyl-carbamoyl]-1-methyl-1H-pyrazol-4-yl}-amide]"
8,7.50,"CC1COCCN1C(=O)c1ncccc1NC(=O)c1nc(C2CC2)cnc1Nc1cncnc1 (stereo not shown) [Example 254, 6-Cyclopropyl-3-(pyrimidin-5-ylamino)-pyrazine-2-carboxylic acid [2-(3-methyl-morpholine-4-carbonyl)-pyridin-3-yl]-amide]"
9,7.54,"CN1CCCC(NC(=O)c2c(NC(=O)c3nc(C4CC4)cnc3Nc3cncnc3)cnn2C)C1 (stereo not shown) [Example 241, 6-Cyclopropyl-3-(pyrimidin-5-ylamino)-pyrazine-2-carboxylic acid [1-methyl-5-(1-methyl-piperidin-3-ylcarbamoyl)-1H-pyrazol-4-yl]-amide]"
10,7.69,"CN(C)C(=O)c1nc(C2CC2)ccc1NC(=O)c1nc(C2CC2)cnc1Nc1cncnc1 [Example 265, 6-Cyclopropyl-3-(pyrimidin-5-ylamino)-pyrazine-2-carboxylic acid (6-cyclopropyl-2-dimethylcarbamoyl-pyridin-3-yl)-amide]"
11,7.90,"CN(CCO)C(=O)c1ncccc1NC(=O)c1nc(C2CC2)cnc1Nc1cncnc1 [Example 269, 6-Cyclopropyl-3-(pyrimidin-5-ylamino)-pyrazine-2-carboxylic acid {2-[(2-hydroxy-ethyl)-methyl-carbamoyl]-pyridin-3-yl}-amide]"
12,7.92,"CNC(=O)c1c(NC(=O)c2nc([C@H]3CCOC3)cnc2Nc2cncnc2)cnn1C [Example 266, 3-(Pyrimidin-5-ylamino)-6-(R)-tetrahydro-furan-3-yl-pyrazine-2-carboxylic acid (1-methyl-5-methylcarbamoyl-1H-pyrazol-4-yl)-amide]"
13,8.46,"CNC(=O)c1cc(C#N)ccc1NC(=O)c1nc(C2CC2)cnc1Nc1cncnc1 [Example 261, 6-Cyclopropyl-3-(pyrimidin-5-ylamino)-pyrazine-2-carboxylic acid (4-cyano-2-methylcarbamoyl-phenyl)-amide]"
14,8.48,"Cn1ncc(NC(=O)c2nc(C3CC3)cnc2Nc2cncnc2)c1C(=O)NC[C@H]1CCCO1 [Example 256, 6-Cyclopropyl-3-(pyrimidin-5-ylamino)-pyrazine-2-carboxylic acid (1-methyl-5-{[(R)-1-(tetrahydro-furan-2-yl)methyl]-carbamoyl}-1H-pyrazol-4-yl)-amide]"
15,8.49,"CNC(=O)c1c(NC(=O)c2nc(C3CC3)cnc2Nc2cncnc2)cnn1CCO [Example 264, 6-Cyclopropyl-3-(pyrimidin-5-ylamino)-pyrazine-2-carboxylic acid [1-(2-hydroxy-ethyl)-5-methylcarbamoyl-1H-pyrazol-4-yl]-amide]"
16,8.54,"Cn1ncc(NC(=O)c2nc(C3CC3)cnc2Nc2cncnc2)c1C(=O)NC[C@@H]1CCCO1 [Example 255, 6-Cyclopropyl-3-(pyrimidin-5-ylamino)-pyrazine-2-carboxylic acid (1-methyl-5-{[(S)-1-(tetrahydro-furan-2-yl)methyl]-carbamoyl}-1H-pyrazol-4-yl)-amide]"
17,8.80,"CC(C)(O)CNC(=O)c1cc(Cl)ncc1NC(=O)c1nc(C2CC2)cnc1Nc1cncnc1 [Example 260, 6-Cyclopropyl-3-(pyrimidin-5-ylamino)-pyrazine-2-carboxylic acid [6-chloro-4-(2-hydroxy-2-methyl-propylcarbamoyl)-pyridin-3-yl]-amide]"
